Data on one molecule can be found in ChEMBL document CHEMBL1143043, “Monitoring aminoglycoside-induced conformational changes in 16S rRNA through acrylamide quenching” (Bioorg Med Chem, 2007).

As usually defined, the Kd is the concentration at which binding is half-saturated.

The nature of assay [1]: Affinity to hairpin A-site 16S rRNA by Electrospray ionization mass spectrometry.
A short description of assay [2]: Affinity to 2-aminopurine labeled hairpin A-site 16S rRNA by Electrospray ionization mass spectrometry.

In the case of `NC[C@@H]1O[C@H](O[C@H]2[C@@H](O)[C@H](O[C@@H]3[C@@H](O)[C@H](N)C[C@H](N)[C@H]3O[C@H]3O[C@H](CO)[C@@H](O)[C@H](O)[C@H]3N)O[C@@H]2CO)[C@H](N)[C@@H](O)[C@@H]1O` [PAROMOMYCIN], the dissociation constant (Kd) was 370 nM in assay [1] and 980 nM in assay [2].
